In patent US11524966B1 (Valo Early Discovery, Inc., priority 2017, dated 2022):

Each molecule was assayed against T1, USP28 (His-tagged USP28-FL-mammalian) (Homo sapiens, UniProt Q96RU2) (assay: Ubiquitin-Rhodamine 110 Assay for USP28 Activity, Example A-1(a)). Details: Ubiquitin-Rhodamine 110 assay, Example A-1(a); read-out: USP28 A-1(a) IC50 range.
T1 construct: Expression of USP28 (1-1077)-TEV-6*His (pTT5 vector); made in house; host or cells: Expi293f cells (pTT5 vector)
T1 sequence (Q96RU2 1-1077): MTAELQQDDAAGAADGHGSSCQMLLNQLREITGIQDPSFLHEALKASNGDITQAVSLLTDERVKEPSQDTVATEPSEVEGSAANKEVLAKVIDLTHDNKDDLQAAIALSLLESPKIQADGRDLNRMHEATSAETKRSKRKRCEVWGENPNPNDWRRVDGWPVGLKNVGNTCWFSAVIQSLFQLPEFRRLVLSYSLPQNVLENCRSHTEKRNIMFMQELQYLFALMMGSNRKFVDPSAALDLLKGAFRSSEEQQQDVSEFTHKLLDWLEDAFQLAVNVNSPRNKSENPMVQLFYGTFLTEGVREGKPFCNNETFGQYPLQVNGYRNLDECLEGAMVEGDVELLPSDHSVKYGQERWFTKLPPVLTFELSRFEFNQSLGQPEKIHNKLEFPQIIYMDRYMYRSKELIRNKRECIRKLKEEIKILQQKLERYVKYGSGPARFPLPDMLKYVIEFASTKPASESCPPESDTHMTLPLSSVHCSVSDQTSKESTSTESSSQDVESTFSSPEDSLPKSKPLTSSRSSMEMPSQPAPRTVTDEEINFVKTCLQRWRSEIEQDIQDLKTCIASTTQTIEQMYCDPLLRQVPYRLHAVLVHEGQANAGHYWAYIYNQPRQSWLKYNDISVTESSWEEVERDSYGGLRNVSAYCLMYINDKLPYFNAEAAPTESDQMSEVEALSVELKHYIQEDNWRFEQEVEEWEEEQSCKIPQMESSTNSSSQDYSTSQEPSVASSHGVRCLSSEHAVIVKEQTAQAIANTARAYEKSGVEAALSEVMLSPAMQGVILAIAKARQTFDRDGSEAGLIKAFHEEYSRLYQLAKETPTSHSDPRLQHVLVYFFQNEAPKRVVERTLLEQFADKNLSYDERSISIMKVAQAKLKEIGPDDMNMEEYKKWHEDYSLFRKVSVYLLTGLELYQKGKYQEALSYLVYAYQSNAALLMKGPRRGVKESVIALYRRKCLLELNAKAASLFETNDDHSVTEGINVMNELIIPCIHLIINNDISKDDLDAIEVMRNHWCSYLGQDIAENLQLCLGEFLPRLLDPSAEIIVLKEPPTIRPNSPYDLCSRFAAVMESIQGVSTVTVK
Format: biochemical
How it was run: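 IC50 from 4-parameter logistic fit of percent inhibition versus no-enzyme and DMSO controls; compounds 25 μM to 1.3 nM, 3-fold. Ub-Rh110 cleavage (25 nM, below Km) by […] mammalian-expressed USP28-FL-His ran 45 min at room temperature, stopped with 10 mM citric acid, read ex 485/em 535.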
`Cc1ccc2c(N)c(C(=O)N[C@H]3COc4cc(N5CC[C@@H]6CNC[C@@H]65)ccc4C3)sc2n1` [Example 165, N-[(3R)-7-[(3aR,6aR)-octahydropyrrolo[2,3-c]pyrrol-1-yl]-3,4-dihydro-2H-1-benzopyran-3-yl]-3-amino-6-methylthieno[2,3-b]pyridine-2-carboxamide] was tested, and the IC50 was 1 to 50 nM. With `Cc1ccc2c(N)c(C(=O)N[C@H]3COc4cc(N5CC[C@H]6CNC[C@H]65)ccc4C3)sc2n1` [Example 166, N-[(3R)-7-[(3aS,6aS)-octahydropyrrolo[2,3-c]pyrrol-1-yl]-3,4-dihydro-2H-1-benzopyran-3-yl]-3-amino-6-methylthieno[2,3-b]pyridine-2-carboxamide] the IC50 was 1 to 50 nM. `Cc1ccc2c(N)c(C(=O)N[C@H]3COc4cc(N5C[C@H](N)[C@H](C(F)F)C5)ccc4C3)sc2n1` [Example 167, 3-amino-N-[(3R)-7-[(3R,4R)-3-amino-4-(difluoromethyl)pyrrolidin-1-yl]-3,4-dihydro-2H-1-benzopyran-3-yl]-6-methylthieno[2,3-b]pyridine-2-carboxamide] showed an IC50 of 1 to 50 nM. In the case of `Cc1ccc2c(N)c(C(=O)N[C@H]3COc4cc(N5C[C@@H](N)[C@@H](C(F)F)C5)ccc4C3)sc2n1` [Example 168, 3-amino-N-[(3R)-7-[(3S,4S)-3-amino-4-(difluoromethyl)pyrrolidin-1-yl]-3,4-dihydro-2H-1-benzopyran-3-yl]-6-methylthieno[2,3-b]pyridine-2-carboxamide], the IC50 is reported as 1 to 50 nM. `Cc1ccc2c(N)c(C(=O)N[C@H]3COc4cc(N5CCNCC5)cc(F)c4C3)oc2n1` [Example 169, 3-amino-N-[(3R)-5-fluoro-7-(piperazin-1-yl)-3,4-dihydro-2H-1-benzopyran-3-yl]-6-methylfuro[2,3-b]pyridine-2-carboxamide] showed an IC50 of 200 to 2000 nM. `Cc1ccc2c(N)c(C(=O)N[C@H]3COc4cc(N5CC6CCC(C5)N6)cc(F)c4C3)oc2n1` [Example 170, 3-amino-N-[(3R)-7-{3,8-diazabicyclo[3.2.1]octan-3-yl}-5-fluoro-3,4-dihydro-2H-1-benzopyran-3-yl]-6-methylfuro[2,3-b]pyridine-2-carboxamide] showed an IC50 of 200 to 2000 nM. `Cc1ccc2c(N)c(C(=O)N[C@H]3CCc4cc(N5CC6CCC(C5)N6)ccc4C3)oc2n1` [Example 171, 3-amino-N-[(2S)-6-{3,8-diazabicyclo[3.2.1]octan-3-yl]-1,2,3,4-tetrahydronaphthalen-2-yl]-6-methylfuro[2,3-b]pyridine-2-carboxamide] gave an IC50 of over 2000 nM. Work on `Cc1ccc2c(N)c(C(=O)N[C@H]3COc4c(F)c(N5CC6CCC(C5)N6)cc(F)c4C3)oc2n1` [Example 172, 3-amino-N-[(3R)-7-{3,8-diazabicyclo[3.2.1]octan-3-yl}-5,8-difluoro-3,4-dihydro-2H-1-benzopyran-3-yl]-6-methylfuro[2,3-b]pyridine-2-carboxamide] yielded an IC50 of 200 to 2000 nM. Molecule `Cc1ccc2c(N)c(C(=O)N[C@H]3COc4nc(N5CC6CCC(C5)N6)ccc4C3)sc2n1` [Example 173, 3-amino-N-[(3R)-7-{3,8-diazabicyclo[3.2.1]octan-3-yl]-2H,3H,4H-pyrano[2,3-b]pyridin-3-yl]-6-methylthieno[2,3-b]pyridine-2-carboxamide] has an IC50 of 50 to 200 nM. Work on `CO[C@H]1CN(c2cc(F)c3c(c2C#N)OC[C@H](NC(=O)c2sc4nc(C)cnc4c2N)C3)C[C@@H]1N` [Example 174, 7-amino-N-[(3R)-7-[(3S,4S)-3-amino-4-methoxypyrrolidin-1-yl]-8-cyano-5-fluoro-3,4-dihydro-2H-1-benzopyran-3-yl]-3-methylthieno[2,3-b]pyrazine-6-carboxamide] yielded an IC50 of 200 to 2000 nM. For `CO[C@H]1CN(c2cc(F)c3c(c2C#N)OC[C@H](NC(=O)c2sc4nc(C)ccc4c2N)C3)C[C@@H]1N` [Example 175, 3-amino-N-[(3R)-7-[(3S,4S)-3-amino-4-methoxypyrrolidin-1-yl]-8-cyano-5-fluoro-3,4-dihydro-2H-1-benzopyran-3-yl]-6-methylthieno[2,3-b]pyridine-2-carboxamide], the IC50 was 50 to 200 nM. Molecule `CO[C@H]1CN(c2cc3c(cc2C#N)C[C@@H](NC(=O)c2sc4nc(C)cnc4c2N)CO3)C[C@@H]1N` [Example 176, 7-amino-N-[(3R)-7-[(3S,4S)-3-amino-4-methoxypyrrolidin-1-yl]-6-cyano-3,4-dihydro-2H-1-benzopyran-3-yl]-3-methylthieno[2,3-b]pyrazine-6-carboxamide] has an IC50 of 1 to 50 nM.
